Results reported in patent publication US12240862B2, “Inhibitors of peptidylarginine deiminases” (Gilead Sciences, Inc., priority 2020, dated 2025).

Biological target: T1, human PAD4 (Homo sapiens, UniProt Q9UM07)
T1 construct: human PAD4 (NM_012387), A2P663, was PCR amplified; His-SUMO (N, cleaved yes); made in house; host or cells: E. coli BL21(DE3)
Assay: In vitro PAD4 BAEE biochemical assay
Conditions: human PAD4, BAEE substrate; 5 nM PAD4, 2 mM calcium chloride, 3 mM BAEE; geometric mean of multiple experiments
Method: The PCR product was ligated into linearized pET-SUMO vector (Invitrogen, Carlsbad, CA), which is part of the Champion™ pET SUMO Protein Expression System. After sequence verification for the correct orientation, the pET-SUMO-hPAD4 expression plasmid was transformed into BL21(DE3) cells.
E. Coli BL21(DE3) cells were inoculated in LB medium with kanamycin at 37° C. until A600 nm reached about 0.5. Protein expression was induced by addition of 0.5 mM IPTG (final) and continued overnight at 16° C. at 220 rpm.
Cells were harvested by centrifugation at 5000 rpm for 10 minutes at 4° C. The pellet was resuspended in 300 ml lysis buffer (20 mM Tris-HCl, pH 8.0, 1 mM EDTA, 500 mM NaCl, 1 mM (tris(2-carboxyethyl)phosphine) (TCEP), 10% glycerol, and 1% Triton X100 and EDTA free protease inhibitor) and lysed by 3× passage through a microfluidizer (Microfluidics, Newton, MA) at 18,000 psi. The cell lysate was clarified by centrifugation at 30,000 rpm for 60 minutes at 4° C. […] Bound protein was eluted with a 0-100% linear gradient of 100 mL Ni-B buffer (Ni A buffer+0.5 M Imidazole).
The protein was then reloaded onto a Ni—HP column for a reverse purification step and recovered in flow through fraction. The protein with His-Sumo tag removed was then polished using a 16/60 Superdex-200 gel filtration column with gel filtration buffer (20 mM Tris pH 8.0, NaCl 400 mM and 1 mM TCEP). The fractions containing the protein were pulled and frozen at −80° C.
The enzymatic activity of human PAD4 was monitored in a biochemical assay in the presence or absence of compounds using the small peptidyl arginine mimic BAEE (Na-Benzoyl-L-arginine ethyl ester hydrochloride) as substrate. PAD4 activity led to deamination of BAEE and release of ammonia. Levels of ammonia were monitored by using an amine coupling reaction and were indicative of PAD4 enzymatic activity.
One hundred nanoliters of test compounds dissolved in DMSO at various concentrations were dispensed into a 384-well black OptiPlate using a Labcyte Echo instrument. Ten microliters of a solution of recombinant PAD4 and calcium chloride diluted in PAD4 assay buffer (50 mM MOPS [3-(N-morpholino) propanesulfonic acid], pH 7.6; 50 mM sodium chloride; 0.05% Tween-20; 2 mM dithiothreitol) was added to the compound-containing plate and was incubated for 30 minutes at 25° C. Ten microliters of a solution of BAEE (Sigma-Aldrich #B4500) diluted in PAD4 assay buffer was then added to start the reaction. Final concentrations were 5 nM PAD4, 2 mM calcium chloride, and 3 mM BAEE. The reaction mixture was incubated at 25° C. for 2 hours and was stopped with the addition of 10 microliters of a solution of 75 mM EDTA (Ethylenediaminetetraacetic acid) in PAD4 assay buffer. Thirty microliters of detection solution (5 mM o-phthalaldehyde, 50 mM MOPS [3-(N-morpholino) propanesulfonic acid], pH 7.6; 50 mM sodium chloride; 0.05% Tween-20; 5 mM dithiothreitol) was then added and the reaction was incubated for 1 hour at 25° C.

T1 sequence (Q9UM07 2-663): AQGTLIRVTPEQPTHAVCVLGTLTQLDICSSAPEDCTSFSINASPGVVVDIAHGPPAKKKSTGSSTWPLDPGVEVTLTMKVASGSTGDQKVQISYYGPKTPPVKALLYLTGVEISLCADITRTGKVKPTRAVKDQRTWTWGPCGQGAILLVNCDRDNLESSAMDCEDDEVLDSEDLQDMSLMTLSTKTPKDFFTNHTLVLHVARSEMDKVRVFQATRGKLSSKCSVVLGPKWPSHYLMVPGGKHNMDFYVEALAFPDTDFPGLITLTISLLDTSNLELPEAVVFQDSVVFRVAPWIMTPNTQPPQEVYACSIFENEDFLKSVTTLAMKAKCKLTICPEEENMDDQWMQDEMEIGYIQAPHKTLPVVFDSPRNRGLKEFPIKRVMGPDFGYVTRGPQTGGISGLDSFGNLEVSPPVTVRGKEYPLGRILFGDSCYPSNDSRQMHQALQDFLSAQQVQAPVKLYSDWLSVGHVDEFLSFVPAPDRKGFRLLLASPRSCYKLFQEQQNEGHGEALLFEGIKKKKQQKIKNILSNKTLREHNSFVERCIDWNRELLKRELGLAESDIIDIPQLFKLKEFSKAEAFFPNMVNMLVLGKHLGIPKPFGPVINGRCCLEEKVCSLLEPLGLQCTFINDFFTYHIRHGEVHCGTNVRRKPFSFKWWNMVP

| IC50 | Compound |
| --- | --- |
| 2060 nM | COc1cc(C(=O)N2C[C@H]3CCN[C@H]3C2)cc2nc(-c3cc4ccc([C@@H](C)NC(=O)C56CC(F)(C5)C6)nc4n3CC3CC3)c(C)n12 [Example 21] |
| 294 nM | COc1cc(C(=O)N2[C@H]3CC[C@@H]2[C@H](N)C3)cc2nc(-c3cc4ccc(N5Cc6ccccc6CS5(=O)=O)nc4n3CC3CC3)c(C)n12 [Example 461, [(1~{R},2~{R},4~{S})-2-amino-7-azabicyclo [2.2.1]heptan-7-yl]-[2-[1-(cyclopropylmethyl)-6-(2,2-dioxo-1,4-dihydro-2$l^6,3-benzothiazin-3-yl)pyrrolo[2,3-b]pyridin-2-yl]-5-methoxy-3-methylimidazo[1,2-a]pyridin-7-yl]methanone] |
| 18000 nM | Cc1c(-c2cc3ccc(N(C(F)F)S(C)(=O)=O)nc3n2CC2CC2)nc2cc(C(=O)N3CCC[C@@H](N)C3)cc([S+](C)[O-])n12 (stereo partly shown) [Example 424, ~{N}-[2-[7-[(3~{R})-3-aminopiperidine-1-carbonyl]-3-methyl-5-methylsulfinylimidazo[1,2-a]pyridin-2-yl]-1-(cyclopropylmethyl)pyrrolo [2,3-b]pyridin-6-yl]-~{N}-(difluoromethyl) methanesulfonamide] |
| 76.3 nM | COc1cc(C(=O)N2[C@H]3CC[C@@H]2[C@H](N)C3)cc2nc(-c3cc4ccc([C@@H](C)NC(=O)C(C)(C)C)nc4n3CC3CC3)c(C)n12 [Example 177, N—((R)-1-(2-(7-((1R,2R,4S)-2-amino-7-azabicyclo[2.2.1]heptane-7-carbonyl)-5-methoxy-3-methylimidazo[1,2-a]pyridin-2-yl)-1-(cyclopropylmethyl)-1H-pyrrolo[2,3-b]pyridin-6-yl)ethyl)pivalamide] |
| 6370 nM | Cc1c(-c2cc3ccc(N(C(F)F)S(C)(=O)=O)nc3n2CC2CC2)nc2cc(C(=O)N3CCC[C@@H](N)C3)cc(N(C)C)n12 [Example 422, ~{N}-[2-[7-[(3~{R})-3-aminopiperidine-1-carbonyl]-5-(dimethylamino)-3-methylimidazo[1,2-a]pyridin-2-yl]-1-(cyclopropylmethyl)pyrrolo [2,3-b]pyridin-6-yl]-~{N}-(difluoromethyl) methanesulfonamide] |
| 135 nM | COc1cc(C(=O)N2[C@H]3CC[C@@H]2[C@H](N)C3)cc2nc(-c3cc4ccc([C@H](C)CC(=O)N5CCCC5)nc4n3CC3CC3)c(C)n12 [Example 522, (3~{R})-3-[2-[7-[(1~{R},2~{R},4~{S})-2-amino-7-azabicyclo[2.2.1]heptane-7-carbonyl]-5-methoxy-3-methylimidazo [1,2-a]pyridin-2-yl]-1-(cyclopropylmethyl)pyrrolo[2,3-b]pyridin-6-yl]-1-pyrrolidin-1-ylbutan-1-one] |
| 250 nM | COc1cc(C(=O)N2[C@H]3CC[C@@H]2[C@H](N)C3)cc2nc(-c3cc4ccc(N5C(=O)CCCC5C)nc4n3CC3CC3)c(C)n12 (stereo partly shown) [Example 456, 1-[2-[7-[(1~{R},2~{R}, 4~{S})-2-amino-7-azabicyclo[2.2.1]heptane-7-carbonyl]-5-methoxy-3-methylimidazo[1,2-a]pyridin-2-yl]-1-(cyclopropylmethyl)pyrrolo[2,3-b]pyridin-6-yl]-6-methylpiperidin-2-one] |
| 71.1 nM | COc1cc(C(=O)N2[C@H]3CC[C@@H]2[C@H](N)C3)cc2nc(-c3cc4ccc([C@@H](C)Nc5cnccn5)nc4n3CC3CC3)c(C)n12 [Example 263, [(1~{R},2~{R},4~{S})-2-amino-7-azabicyclo [2.2.1]heptan-7-yl]-[2-[1-(cyclopropylmethyl)-6-[(1~{R})-1-(pyrazin-2-ylamino)ethyl]pyrrolo [2,3-b]pyridin-2-yl]-5-methoxy-3-methylimidazo[1,2-a]pyridin-7-yl]methanone] |
| 390 nM | COc1cc(C(=O)N2[C@H]3CCC[C@@H]2[C@H](N)C3)cc2nc(-c3cc4ccc(N(C(F)F)S(C)(=O)=O)nc4n3CC3CC3)c(C)n12 [Example 332, N-[2-[7-[(1S,5R,6R)-6-amino-8-azabicyclo[3.2.1]octane-8-carbonyl]-5-methoxy-3-methyl-imidazo [1,2-a]pyridin-2-yl]-1-(cyclopropylmethyl)pyrrolo [2,3-b]pyridin-6-yl]-N-(difluoromethyl) methanesulfonamide] |
| 79.8 nM | COc1cc(C(=O)N2[C@H]3CC[C@@H]2[C@H](N)C3)cc2nc(-c3cc4ccc([C@@H](C)NC(=O)CC(C)(C)C(=O)O)nc4n3CC3CC3)c(C)n12 [Example 161, 4-[[(1~{R})-1-[2-[7-[(1~{R},2~{R},4~{S})-2-amino-7-azabicyclo[2.2.1]heptane-7-carbonyl]-5-methoxy-3-methylimidazo [1,2-a]pyridin-2-yl]-1-(cyclopropylmethyl)pyrrolo [2,3-b]pyridin-6-yl]ethyl]amino]-2,2-dimethyl-4-oxobutanoic acid] |
| 63.7 nM | COc1cc(C(=O)N2[C@H]3CC[C@@H]2[C@H](N)C3)cc2nc(-c3cc4ccc([C@@H](C)NC(=O)c5ncccn5)nc4n3CC3CC3)c(C)n12 [Example 118, ~{N}-[(1~{R})-1-[2-[7-[(1~{R},2~{R},4~{S})-2-amino-7-azabicyclo[2.2.1]heptane-7-carbonyl]-5-methoxy-3-methylimidazo [1,2-a]pyridin-2-yl]-1-(cyclopropylmethyl)pyrrolo [2,3-b]pyridin-6-yl]ethyl]pyrimidine-2-carboxamide] |
| 99.1 nM | COc1cc(C(=O)N2[C@H]3CC[C@@H]2[C@H](N)C3)cc2nc(-c3cc4ccc([C@@H](C)NC(=O)C(F)(F)F)nc4n3CC3CC3)c(C)n12 [Example 162, ~{N}-[(1~{R})-1-[2-[7-[(1~{R},2~{R},4~{S})-2-amino-7-azabicyclo[2.2.1]heptane-7-carbonyl]-5-methoxy-3-methylimidazo [1,2-a]pyridin-2-yl]-1-(cyclopropylmethyl)pyrrolo [2,3-b]pyridin-6-yl]ethyl]-2,2,2-trifluoroacetamide] |
| 383 nM | COc1cc(C(=O)N2[C@H]3CC[C@@H]2[C@H](N)[C@H](O)C3)cc2nc(-c3cc4ccc(N(C(F)F)S(C)(=O)=O)nc4n3CC3CC3)c(C)n12 [Example 311, ~{N}-[2-[7-[(1~{R}, 2~{S},3~{R},5~{S})-2-amino-3-hydroxy-8-azabicyclo[3.2.1]octane-8-carbonyl]-5-methoxy-3-methylimidazo [1,2-a]pyridin-2-yl]-1-(cyclopropylmethyl)pyrrolo [2,3-b]pyridin-6-yl]-~{N}-(difluoromethyl) methanesulfonamide] |
| 44.3 nM | COc1cc(C(=O)N2[C@H]3CC[C@@H]2[C@H](N)C3)cc2nc(-c3cc4ccc([C@@H](C)NC(=O)c5cnn(C(F)F)c5)nc4n3CC3CC3)c(C)n12 [Example 107] |
| 1020 nM | Cc1c(-c2cc3ccc(N(C(F)F)S(C)(=O)=O)nc3n2CC2CC2)nc2cc(C(=O)N3CCC[C@@H](N)C3)cc(C3CC3)n12 [Example 428, ~{N}-[2-[7-[(3~{R})-3-aminopiperidine-1-carbonyl]-5-cyclopropyl-3-methylimidazo [1,2-a]pyridin-2-yl]-1-(cyclopropylmethyl)pyrrolo [2,3-b]pyridin-6-yl]-~{N}-(difluoromethyl) methanesulfonamide] |
| 117 nM | COc1cc(C(=O)N2[C@H]3CC[C@@H]2[C@H](N)C3)cc2nc(-c3cc4ccc(N5[C@@H]6CC[C@@H](C6)CS5(=O)=O)nc4n3CC3CC3)c(C)n12 [Example 473, [(1~{R},2~{R},4~{S})-2-amino-7-azabicyclo [2.2.1]heptan-7-yl]-[2-[1-(cyclopropylmethyl)-6-[(1~ {R},5~{S})-3,3-dioxo-3$l^6-thia-2-azabicyclo[3.2.1]octan-2-yl]pyrrolo [2,3-b]pyridin-2-yl]-5-methoxy-3-methylimidazo [1,2-a]pyridin-7-yl] methanone] |
